*1 amine or outer side, *2 acyl side, *3 side chain or, on linkers, in order; H or OH if unused. Where a SMILES comes first, the peptide text is derived from it. Bridges are numbered along the chain shown (N, C = ends). [ ]: non-standard residue; d: D form. The star is where a group is joined. ξ: configuration not given here. Phe(3-OMe,4-CONHMs) = COc1cc(C[C@H](N)C(=O)O)ccc1C(=O)NS(C)(=O)=O; dhPhe(4-CONHMe,3-OMe) = CNC(=O)c1ccc(CC[C@@H](N)C(=O)O)cc1OC; NMeAla(4-thiazolyl) = CN[C@@H](Cc1cscn1)C(=O)O; NMePhe(3-Cl) = CN[C@@H](Cc1cccc(Cl)c1)C(=O)O; NMeW = CN[C@@H](Cc1c[nH]c2ccccc12)C(=O)O; Propyl(2,2-Me2,3-OH) = CC(C)(CO)C*; NMeF = CN[C@@H](Cc1ccccc1)C(=O)O; NMeGABA = CN(CCCC(=O)[*:2])[*:1]; NMeI = CC[C@H](C)[C@H](NC)C(=O)O; ξThr(3R) = C[C@@H](O)C(N)C(=O)O; CH2CH(OH)CF3 = OC(C*)C(F)(F)F; NMeL = CN[C@@H](CC(C)C)C(=O)O; Butyl(3S-OH) = C[C@H](O)CC*; NMeV = CN[C@H](C(=O)O)C(C)C; NMeA = CN[C@@H](C)C(=O)O; Piperidide = C1CCN(*)CC1; NBuGly = CCCCNCC(=O)O; NPrGly = CCCNCC(=O)O; X3 = C[C@H](O)C*; Sar = CNCC(=O)O; tBu = CC(C)(C)*
test: in vitro; settings: human, Caco-2, Caco-2 (cm/sec)

Compound | Papp
COc1cc(C[C@@H]2NC(=O)[C@H](CC(C)C)N(C)C(=O)[C@H](COC(C)(C)C)NC(=O)[C@H](Cc3ccccc3)N(C)C(=O)[C@H](CC(C)C)N(C)C(=O)[C@H](C)NC(=O)[C@H](CC(C)C)N(C)C(=O)CCCN(C)C(=O)C[C@@H](C(=O)N3CCCCC3)NC(=O)[C@H](CC(C)C)N(C)C(=O)[C@H](CC(C)C)N(C)C2=O)ccc1C(=O)NS(C)(=O)=O [AP141] ([NMeGABA][NMeL]A[NMeL][NMeF]S(tBu)[NMeL][Phe(3-OMe,4-CONHMs)][NMeL][NMeL]D-Piperidide; lactam N-11) | < 0.27 ×10⁻⁶ cm/s
CNC(=O)c1ccc(CC[C@H]2NC(=O)[C@H](CC(C)C)N(C)C(=O)CN(C)C(=O)C([C@@H](C)O)NC(=O)[C@H](CC(C)C)N(C)C(=O)[C@H](CC(C)C)NC(=O)[C@H](Cc3ccccc3)N(C)C(=O)[C@@H](C(C)C)NC(=O)C[C@@H](C(=O)N3CCCCC3)NC(=O)[C@H](CC(C)C)N(C)C(=O)[C@H](CC(C)C)N(C)C2=O)cc1OC (stereo partly drawn) [AP208] ([dV][NMeF]L[NMeL][ξThr(3R)][Sar][NMeL][dhPhe(4-CONHMe,3-OMe)][NMeL][NMeL]D-Piperidide; lactam N-11) | 0.6 ×10⁻⁶ cm/s
CCCN1CC(=O)N(C)[C@@H](CC(C)C)C(=O)N[C@H](C(=O)N2CCCCC2)CC(=O)N(C)[C@@H](C)C(=O)N[C@@H](COC[C@H](C)O)C(=O)N(C)[C@@H](CC(C)C)C(=O)N(C)[C@@H](Cc2cccc(Cl)c2)C(=O)N[C@@H](CC(C)C)C(=O)N(C)[C@@H](Cc2ccccc2)C(=O)N(C)[C@@H]([C@@H](C)CC)C(=O)N[C@@H]([C@@H](C)O)C1=O [AP65] ([NMeA]S(X3)[NMeL][NMePhe(3-Cl)]L[NMeF][NMeI]T[NPrGly][NMeL]D-Piperidide; lactam N-11) | 1.2 ×10⁻⁶ cm/s
CC(C)C[C@H]1C(=O)N(C)[C@@H](Cc2c[nH]c3ccccc23)C(=O)N(C)[C@@H](Cc2ccccc2)C(=O)N[C@@H]([C@@H](C)O)C(=O)N(C)[C@@H](C)C(=O)N(C)[C@@H](CC(C)C)C(=O)N[C@H](C(=O)N2CCCCC2)CC(=O)N(C)[C@@H](C)C(=O)N(C)[C@@H](CC(C)C)C(=O)N(C)[C@@H](CC(C)C)C(=O)N[C@@H](C(C)C)C(=O)N1C [pd109] ([NMeA][NMeL][NMeL]V[NMeL][NMeW][NMeF]T[NMeA][NMeL]D-Piperidide; lactam N-11) | 0.0092 ×10⁻⁶ cm/s
CCCCN1CC(=O)N(C)[C@@H](CC(C)C)C(=O)N[C@H](C(=O)N2CCCCC2)CC(=O)N(C)[C@@H](C)C(=O)N[C@@H](COCC(C)(C)CO)C(=O)N(C)[C@@H](CC(C)C)C(=O)N(C)[C@@H](Cc2ccccc2)C(=O)N[C@@H](C(C)C)C(=O)N(C)[C@@H](Cc2ccccc2)C(=O)N(C)[C@@H](CC(C)C)C(=O)N[C@@H]([C@@H](C)O)C1=O [AP121] ([NMeA]S(Propyl(2,2-Me2,3-OH))[NMeL][NMeF]V[NMeF][NMeL]T[NBuGly][NMeL]D-Piperidide; lactam N-11) | 3.1 ×10⁻⁶ cm/s
CC(C)C[C@H]1C(=O)N[C@@H](Cc2ccc(O)cc2)C(=O)N(C)[C@@H](CC(C)C)C(=O)N(C)[C@@H](Cc2ccccc2)C(=O)N[C@@H](COC(C)(C)C)C(=O)N(C)[C@@H](CC(C)C)C(=O)N[C@@H]([C@@H](C)O)C(=O)N(C)[C@@H](CC(C)C)C(=O)N(C)[C@@H](CC(C)C)C(=O)N[C@H](C(=O)N2CCCCC2)CC(=O)N(C)CCCC(=O)N1C [Compound F04] ([NMeGABA][NMeL]Y[NMeL][NMeF]S(tBu)[NMeL]T[NMeL][NMeL]D-Piperidide; lactam N-11) | 0.13 ×10⁻⁶ cm/s
CCCCN1CC(=O)N(C)[C@@H](Cc2cccc(Cl)c2)C(=O)N(C)[C@@H](CC(C)C)C(=O)N[C@@H](COCC[C@H](C)O)C(=O)N(C)[C@@H](CC(C)C)C(=O)N[C@H](C(=O)N2CCCCC2)CC(=O)N(C)CC(=O)N(C)[C@@H](Cc2ccccc2)C(=O)N[C@@H](C(C)C)C(=O)N(C)[C@@H](CC(C)C)C(=O)N[C@@H]([C@@H](C)O)C1=O [AP106] ([Sar][NMeF]V[NMeL]T[NBuGly][NMePhe(3-Cl)][NMeL]S(Butyl(3S-OH))[NMeL]D-Piperidide; lactam N-11) | 0.25 ×10⁻⁶ cm/s

same assay, conditions: human, Caco-2, Caco-2 (cm/sec) Papp

Compound | Papp
CC(C)C[C@@H]1NC(=O)[C@H](CC(C)C)N(C)C(=O)C[C@@H](C(=O)N2CCCCC2)NC(=O)[C@H](CC(C)C)N(C)C(=O)CN(C)C(=O)[C@H]([C@@H](C)O)NC(=O)[C@H](Cc2cscn2)N(C)C(=O)[C@H](Cc2ccccc2)N(C)C(=O)[C@H](Cc2ccccc2)NC(=O)[C@H](Cc2ccccc2)N(C)C(=O)[C@H](CC(C)C)N(C)C1=O [pd228] ([NMeL]L[NMeL][NMeF]F[NMeF][NMeAla(4-thiazolyl)]T[Sar][NMeL]D-Piperidide; lactam N-11) | 0.58 ×10⁻⁶ cm/s

same assay, conditions: human, Caco-2, Caco-2 (membrane permeability)

Compound | Papp
CC[C@H](C)[C@H]1C(=O)N[C@@H]([C@@H](C)O)C(=O)N(C)CC(=O)N(C)[C@@H](CC(C)C)C(=O)N[C@H](C(=O)N2CCCCC2)CC(=O)N(C)[C@@H](C(C)C)C(=O)N[C@@H](COCC(O)C(F)(F)F)C(=O)N(C)[C@@H](CC(C)C)C(=O)N(C)[C@@H](Cc2ccccc2)C(=O)N[C@@H](CC(C)C)C(=O)N(C)[C@@H](Cc2ccccc2)C(=O)N1C (stereo partly drawn) [Compound C08] ([NMeV]S(CH2CH(OH)CF3)[NMeL][NMeF]L[NMeF][NMeI]T[Sar][NMeL]D-Piperidide; lactam N-11) | 0.6 ×10⁻⁶ cm/s

Source: patent US20230096766A1, “AMINO ACID HAVING FUNCTIONAL GROUP CAPABLE OF INTERMOLECULAR HYDROGEN BONDING, PEPTIDE COMPOUND CONTAINING SAME AND METHOD FOR PRODUCTION THEREOF” (Chugai Seiyaku Kabushiki Kaisha, priority 2018, published 2023)
